According to the NIST ThermoML archive (doi:10.1021/acs.jced.8b00196):
± gives the expanded uncertainty stated by the source.

Assays:
[1] = Crystal; DSC
[2] = Molar enthalpy of transition or fusion; settings: Crystal; DSC

Triple point temperature [1]: 323.4 ± 2.1 K | Molar enthalpy of transition or fusion [2]: 4.21 ± 0.311 kcal/mol
SMILES: O=C(c1ccccc1)c1ccccc1 [benzophenone]
